One assay concerns the target T1, Rab GG transferase (Rattus norvegicus, UniProt Q08602+Q08603).
T1 construct: purified Components A and B of Rab GG transferase; from tissue
T1 sequence (Q08602 1-567): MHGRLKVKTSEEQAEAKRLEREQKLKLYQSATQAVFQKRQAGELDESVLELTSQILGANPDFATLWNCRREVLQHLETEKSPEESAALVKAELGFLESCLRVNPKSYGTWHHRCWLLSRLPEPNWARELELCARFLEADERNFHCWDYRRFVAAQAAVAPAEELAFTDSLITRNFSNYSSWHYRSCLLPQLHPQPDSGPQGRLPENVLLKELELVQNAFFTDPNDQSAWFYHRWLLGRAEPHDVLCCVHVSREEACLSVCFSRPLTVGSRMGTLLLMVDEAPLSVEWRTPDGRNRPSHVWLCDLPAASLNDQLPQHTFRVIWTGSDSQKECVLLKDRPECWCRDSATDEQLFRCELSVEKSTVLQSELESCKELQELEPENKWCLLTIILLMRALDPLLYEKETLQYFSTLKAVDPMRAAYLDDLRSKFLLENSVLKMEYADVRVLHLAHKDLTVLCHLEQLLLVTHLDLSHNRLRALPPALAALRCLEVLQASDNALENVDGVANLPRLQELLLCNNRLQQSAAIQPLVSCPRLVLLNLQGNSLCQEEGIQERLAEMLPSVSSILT
T1 sequence (Q08603 1-331): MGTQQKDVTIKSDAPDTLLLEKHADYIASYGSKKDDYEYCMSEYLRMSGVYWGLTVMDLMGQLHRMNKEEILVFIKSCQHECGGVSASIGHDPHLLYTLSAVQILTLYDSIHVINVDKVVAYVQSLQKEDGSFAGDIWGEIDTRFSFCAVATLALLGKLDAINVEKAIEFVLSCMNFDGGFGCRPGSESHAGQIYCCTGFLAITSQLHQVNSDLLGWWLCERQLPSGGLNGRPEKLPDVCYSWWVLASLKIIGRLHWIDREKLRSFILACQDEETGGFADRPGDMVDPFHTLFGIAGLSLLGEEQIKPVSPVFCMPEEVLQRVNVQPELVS
In words: Inhibition of Rab GG transferase. Format: biochemical. As to conditions: FIG. 1C; Rab1A substrate; read-out: IC0.5 Rab GG transferase.

In assay [1] the test system is H-ras(Val12)-transformed rat-1 fibroblasts (rat 2.2 cells). In words: Changes in morphology of H-ras-transformed cells. Type of assay: cell-based. The settings on record: 5 days. The procedure:
Compound 27A (denoted as BG269A in the figure) and compound 27B (denoted as BG269B in the figure) were added at 250 μM to test whether these compounds would induce reversion to a more normal phenotype as had been previously shown with microinjection of anti-Ras antibodies (see Feramisco, J. R. et al Nature 314, 639 (1985)). The H-ras transformed cells, denoted as rat 2.2 cells, were generated by transfection of rat-1 fibroblasts as described (see Seeburg, P. H., Colby, W. W., Capon, D. J., Goeddel, D. V., and Levinson, A. D. Nature 312,71 (1984)). Cells that overgrew the monolayer were extracted and plated onto agar to obtain a cell line displaying a fully transformed phenotype. Untransformed rat-1 fibroblasts and src-transformed rat-1 fibroblasts were also treated. The src-transformed cells were generated by co-transfection of rat-1 fibroblasts with pSV3.Neo.src, a vector containing the gene for src as well as the gene that confers G418 resistance, both under control of SV40 early promoters. G418-resistant cell clones that diplayed a transformed phenotype were used to generate the cell line. On day 0, cells were plated in monolayer culture at 3×10^3 cells per well (24-well plates) in 1 ml DMEM supplemented with 10% FCS, 100 U/ml penicillin, 10 μg/ml streptomycin, 2% DMSO, and 0.5 mM DTT with and without 200 μM inhibitor. On day 3, the cells were refed with the same medium. On day 5, the cells were photographed under contrast at a magnification of 100X. […] This change in morphology is remarkably similar to that seen following injection of anti-ras antibodies into ras-transformed cells (see Feramisco, J. R. et al Nature 314, 639 (1985)). Rat-1 fibroblasts transformed with the src oncogene also grew in a multilayered pattern (FIG. 6C), but this was not affected by compound 27A or compound 27B (FIG. 6D).

The test system of assay [2] is untransformed rat-1 fibroblasts. In words: Changes in morphology of untransformed cells. Type of assay: cell-based. As to conditions: FIG. 6E and F. The procedure:
Compound 27A (denoted as BG269A in the figure) and compound 27B (denoted as BG269B in the figure) were added at 250 μM to test whether these compounds would induce reversion to a more normal phenotype as had been previously shown with microinjection of anti-Ras antibodies (see Feramisco, J. R. et al Nature 314, 639 (1985)). The H-ras transformed cells, denoted as rat 2.2 cells, were generated by transfection of rat-1 fibroblasts as described (see Seeburg, P. H., Colby, W. W., Capon, D. J., Goeddel, D. V., and Levinson, A. D. Nature 312,71 (1984)). Cells that overgrew the monolayer were extracted and plated onto agar to obtain a cell line displaying a fully transformed phenotype. Untransformed rat-1 fibroblasts and src-transformed rat-1 fibroblasts were also treated. The src-transformed cells were generated by co-transfection of rat-1 fibroblasts with pSV3.Neo.src, a vector containing the gene for src as well as the gene that confers G418 resistance, both under control of SV40 early promoters. G418-resistant cell clones that diplayed a transformed phenotype were used to generate the cell line. On day 0, cells were plated in monolayer culture at 3×10^3 cells per well (24-well plates) in 1 ml DMEM supplemented with 10% FCS, 100 U/ml penicillin, 10 μg/ml streptomycin, 2% DMSO, and 0.5 mM DTT with and without 200 μM inhibitor. On day 3, the cells were refed with the same medium. […]

The subject of the next assay is SW-480 cells. Description: Growth inhibition of human tumor line SW-480. Type of assay: cell-based. As to conditions: SW480, SW-480, colon, ras transformed, read-out: % growth inhib. The procedure: To examine the effects of farnesyltransferase inhibition on cell growth, three cell lines (ras-transformed rat-1, src-transformed rat-1, and parental rat-1 cells) were seeded (see FIG. 7) at low density and allowed to grow for 10 days in the absence or presence of increasing concentrations of BZA-5B (compound 37). See Example 128 for description of cells. On day 0, cells were plated in monolayer culture at 2×10^3 cells per well (24-well plates) in 1 ml DMEM supplemented with 10% fetal calf serum, 100 U/ml penicillin, 100 μg/ml streptomycin, 0.5 mM DTT, 0.025% DMSO, and the indicated concentration of BZA-5B (compound 37). On days 3 and 7, cells were washed and refed with the same medium. At the time indicated in FIG. 7, cells were harvested by trypsinization and counted in a Coulter counter. Panels A, C, E show the growth rate of each cell line in the absence of inhibitor. Panels B, D, F show the inhibition of growth as a function of concentration of BZA-5B at each time point. […]
To examine the effects of farnesyltransferase inhibition on the growth of human tumor cell lines, several such lines were treated with 25 μM BZA-5B (compound 37B) using a procedure similar to that described in Example 129 above. Cells were refed with fresh media at days 3 and 6 containing the inhibitor, and were harvested and counted as described above. […]

For assay [3], the system named is HT 1080 human tumor cells in nude mouse. Description: Survival of nude mice after intraperitoneal implantation of HT 1080 human tumor cells. Type of assay: in vivo. The settings on record: 20 mg/kg daily. The procedure: Implantation of […] HT 1080 cells in the peritoneal cavity of the nude mouse allows seeding and growth of tumor cell masses within the peritoneum. […] In this experiment, fourteen nude mice were injected on day 0 with […] HT 1080 cells via intraperitoneal injection. Half the animals (seven) immediately began receiving daily treatment with Compound 37B at 20 mg/kg (formulated in approx. 0.25 ml of 1% DMSO, 20% glycerol, 10 mM NaOAc, 130 mM NaCl, pH 4.5). The other seven animals received daily injection of the above vehicle alone.

Entries after “also recorded” stand apart in the source; their conditions may differ.

Regarding `CSCC[C@H](NC(=O)CN1C(=O)C(N(C)C(=O)[C@@H](N)CS)N=C(c2ccccc2)c2ccccc21)C(=O)O` (single isomer, unassigned) [27B], at Rab GG transferase, the IC50 came out at 5.5 µM. Moreover, in assay [1] (FIG. 6A/6B), the “effect on transformed phenotype (morphology)” value is “reversed the transformed phenotype”. For the same molecule, in assay [1] (FIG. 6B), the “effect on cell density” value is given as “grew to lower cell density”. In addition, the “effect on morphology of untransformed cells” value in assay [2] is listed as “no apparent effect on the morphology of untransformed rat-1 fibroblasts”.

As to `COC(=O)[C@H](CCSC)NC(=O)CN1C(=O)C(N(C)C(=O)[C@@H](N)CS)N=C(c2ccccc2)c2ccccc21` (single isomer, unassigned) [37B], the inhibition at 25 µM in the assay on SW-480 cells came to 45%. In addition, in assay [3] (over 25 days, FIG. 8), the “mortality / survival of mice with IP tumor” value is recorded as “caused a reduction in mortality over 25 days; also recorded: blocked the rapid mortality associated with IP implantation of tumor cells”. In assay [3] (dissection of all treated animals), the “tumor cell masses in the peritoneum at end of treatment” value was “all of the treated animals showed the presence of tumor cell masses in the peritoneum”.

These data come from US5843941A, “Ras farnesyl transferase inhibitors” (Genentech, Inc., priority 1994, dated 1998).
